Source: PubChem BioAssay AID1963868 (Molecular Pharmacology Branch, DTP, NCI, 2024)

System: KRAS PDC tumor spheroids (HUVEC+MSC), viability
Assay: Anticancer human tumor 254851-301-R-J1-PDC patient-derived colon carcinoma cell line growth inhibition [KRAS2]
Details: for IC50: curve of first compound; for viability, T/C: stronger effect = lower value
Source text: Multicellular complex tumor spheroid response to RAS pathway inhibitors in combination with a targeted agents in patient-derived cell lines with oncogenic KRAS variants from multiple cancer types
A high-throughput screen of multi-cell type tumor spheroids was designed to identify active combinations of targeted small molecules and KRAS pathway inhibitors. Complex spheroids include a stromal component modeled by human endothelial cells (HUVEC) and fibroblasts modeled by human mesenchymal stem cells (MSCs). The concentration ranges selected for each drug and investigational agent were based upon clinically achievable concentrations if the clinical Cmax of the agent was known.
Compounds. The drugs and investigational agents: BI-3406 (NSC825286), BAY-293 (NSC824723), batoprotafib (TNO155; NSC825523), sotorasib (AMG 510; NSC818433), MRTX1257 (NSC819558), elimusertib (BAY 1895344; NSC800525), molibresib (GSK525762; NSC774829), temuterkib (LY3214996; NSC803410), venetoclax (NSC766270), alisertib (NSC759677), olaparib (NSC753686), talazoparib (NSC767125), erdafitinib (NSC781556), ipatasertib (NSC767898), cabozantinib (NSC761068), nintedanib (NSC756659), abemaciclib (NSC768073), docetaxel (NSC628503), trametinib (NSC758246), and sapanisertib (NSC764658) were obtained from the National Cancer Institute (NCI) Developmental Therapeutics Program Chemical Repository. The FDA-approved anticancer drug set is available from the Developmental Therapeutics Program. […] The stock solutions were prepared in dimethyl sulfoxide (DMSO, Sigma-Aldrich, St. Louis, MO, cat. D2650) at 800-fold the tested concentration and stored at -70 degrees C prior to their use. All drugs and investigational agents were tested over a range starting from a high concentration at or near the clinical Cmax and decreasing in half-log increments. If the clinical Cmax for an agent had not been determined, the highest concentration tested was 10 microM.
Cell Culture. All cells were maintained in an incubator at 37 degrees C and 5% CO2 with 95% humidity. The PDC lines were cultured according to standard operating procedures established by the NCI PDMR (https://pdmr.cancer.gov/sops/default.htm). Briefly, all PDCs were thawed and cultured in Matrigel-coated flasks prepared with a working solution of 1X Ham's F-12 nutrient mix, without supplementation (Invitrogen, Waltham, MA, cat. 11765054), 100 U/mL penicillin-streptomycin (Invitrogen, cat. 15140122), and 2.5% Matrigel (Corning Inc., Corning, NY, cat. 354248) for the first three passages. All PDCs were cultured in complete DMEM/F-12 media containing advanced DMEM/F-12 (Invitrogen, cat. 12634028), 4.9% defined fetal bovine serum, heat inactivated (HyClone Laboratories Inc., Logan, UT, cat. SH30070.03HI), 389 ng/mL hydrocortisone (Sigma-Aldrich, cat. H4001), 9.7 ng/mL human EGF recombinant protein (Invitrogen, cat. PHG0313), 23.4 microg/mL adenine (Sigma-Aldrich, cat. A2786), 97.3 U/mL penicillin-streptomycin (Invitrogen, cat. 15140122), 1.9 mM L-glutamine (Invitrogen, cat. 25030081), and 9.7 microM Y-27632 dihydrochloride (Tocris Bioscience, Bristol, United Kingdom, cat. 1254). The PDCs were cultured in complete DMEM/F12 media without 9.7 microM Y-27632 dihydrochloride for at least two passages prior to the screen. The established cell line HOP-62 was cultured in RPMI 1640 medium, HEPES (Invitrogen, cat. 22400105) with 10% defined fetal bovine serum (HyClone Laboratories Inc., cat. SH30070.03) and 2 mM L-glutamine (Invitrogen, cat. 25030081). The pooled donor HUVEC were cultured in endothelial cell growth medium 2 (PromoCell, Heidelberg, Germany, cat. C-22011) and the hMSC were cultured in mesenchymal stem cell growth medium 2 (PromoCell, cat. C-28009). For all experiments, HUVEC and hMSC were used at passages </=5, while the malignant cell lines were used at passages </=15. […]

[1] = second compound 0.1 µM, first compound 0.000316 µM
[2] = second compound 0.1 µM, first compound 0.001 µM
[3] = second compound 0.1 µM, first compound 0.00316 µM
[4] = second compound 0.1 µM, first compound 0.01 µM
[5] = second compound 0.1 µM, first compound 0.0316 µM
[6] = second compound 0.316 µM, first compound 0.000316 µM
[7] = second compound 0.316 µM, first compound 0.001 µM
[8] = second compound 0.316 µM, first compound 0.00316 µM
[9] = second compound 0.316 µM, first compound 0.01 µM
[10] = second compound 0.316 µM, first compound 0.0316 µM
[11] = second compound 1 µM, first compound 0.000316 µM
[12] = second compound 1 µM, first compound 0.001 µM
[13] = second compound 1 µM, first compound 0.00316 µM
[14] = second compound 1 µM, first compound 0.01 µM
[15] = second compound 1 µM, first compound 0.0316 µM
[16] = second compound 3.16 µM, first compound 0.000316 µM
[17] = second compound 3.16 µM, first compound 0.001 µM
[18] = second compound 3.16 µM, first compound 0.00316 µM
[19] = second compound 3.16 µM, first compound 0.01 µM
[20] = second compound 3.16 µM, first compound 0.0316 µM
[21] = second compound 10 µM, first compound 0.000316 µM
[22] = second compound 10 µM, first compound 0.001 µM
[23] = second compound 10 µM, first compound 0.00316 µM
[24] = second compound 10 µM, first compound 0.01 µM
[25] = second compound 10 µM, first compound 0.0316 µM
[26] = second compound 0.1 µM, first compound 0.1 µM
[27] = second compound 0.316 µM, first compound 0.1 µM
[28] = second compound 1 µM, first compound 0.1 µM
[29] = second compound 3.16 µM, first compound 0.1 µM
[30] = second compound 10 µM, first compound 0.1 µM
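Further: spheroids exposed to compounds for seven days before readout.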
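Wherever viability, T/C is given: 100% = DMSO vehicle control luminescence of the spheroids.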

SMILES | IC50 (second compound 0.1 µM) [nM] | IC50 (second compound 0.316 µM) [nM] | IC50 (second compound 1 µM) [nM] | IC50 (second compound 3.16 µM) [nM] | IC50 (second compound 10 µM) [nM] | viability, T/C [1] [%] | viability, T/C [2] [%] | viability, T/C [3] [%] | viability, T/C [4] [%] | viability, T/C [5] [%] | viability, T/C [6] [%] | viability, T/C [7] [%] | viability, T/C [9] [%] | viability, T/C [10] [%] | viability, T/C [14] [%] | viability, T/C [15] [%] | viability, T/C [19] [%] | viability, T/C [20] [%] | viability, T/C [24] [%] | viability, T/C [25] [%] | also measured
CC(=O)Nc1cccc(-n2c(=O)n(C3CC3)c(=O)c3c(Nc4ccc(I)cc4F)n(C)c(=O)c(C)c32)c1 + COc1cc2nc(C)nc(NC(C)c3cc(N)cc(C(F)(F)F)c3)c2cc1OC1CCOC1 | 3.89 | 4.05 | 2.77 | 2.19 | 0.663 | 97.8 | 90.6 | 60.4 | 9.1 | 2.7 | 99 | 94 | 6.64 | 2.56 | 5.69 | 2.26 | 4.02 | 2.15 | 2.32 | 1.62 | viability, T/C (second compound 0.1 µM, first compound 0.0001 µM): 105%; viability, T/C (second compound 0.316 µM, first compound 0.0001 µM): 108%; viability, T/C [8]: 62.7%; viability, T/C (second compound 1 µM, first compound 0.0001 µM): 111%; viability, T/C [11]: 88.2%; viability, T/C [12]: 89.9%; viability, T/C [13]: 45.8%; viability, T/C (second compound 3.16 µM, first compound 0.0001 µM): 100%; viability, T/C [16]: 97.7%; viability, T/C [17]: 85.6%; viability, T/C [18]: 33.4%; viability, T/C (second compound 10 µM, first compound 0.0001 µM): 84.8%; viability, T/C [21]: 72.5%; viability, T/C [22]: 38%; viability, T/C [23]: 3.27%
CC(=O)OC12COC1CC(O)C1(C)C(=O)C(O)C3=C(C)C(OC(=O)C(O)C(NC(=O)OC(C)(C)C)c4ccccc4)CC(O)(C(OC(=O)c4ccccc4)C21)C3(C)C (stereo not given) + COc1cc2nc(C)nc(NC(C)c3cc(N)cc(C(F)(F)F)c3)c2cc1OC1CCOC1 | 180 | 143 | 166 | 66.2 | 69.7 |  |  |  | 95 | 87 |  |  | 96.1 | 92.7 | 82.2 | 78.7 | 71.8 | 67 | 72.4 | 68.9 | viability, T/C [26]: 62.2%; viability, T/C (second compound 0.1 µM, first compound 0.316 µM): 38.4%; viability, T/C (second compound 0.1 µM, first compound 1 µM): 27%; viability, T/C (second compound 0.1 µM, first compound 3.16 µM): 24.5%; viability, T/C [27]: 56.4%; viability, T/C (second compound 0.316 µM, first compound 0.316 µM): 34.6%; viability, T/C (second compound 0.316 µM, first compound 1 µM): 24.7%; viability, T/C (second compound 0.316 µM, first compound 3.16 µM): 23.3%; viability, T/C [28]: 62.1%; viability, T/C (second compound 1 µM, first compound 0.316 µM): 34.6%; viability, T/C (second compound 1 µM, first compound 1 µM): 26.4%; viability, T/C (second compound 1 µM, first compound 3.16 µM): 24.5%; viability, T/C [29]: 40.3%; viability, T/C (second compound 3.16 µM, first compound 0.316 µM): 28.1%; viability, T/C (second compound 3.16 µM, first compound 1 µM): 24.9%; viability, T/C (second compound 3.16 µM, first compound 3.16 µM): 24.2%; viability, T/C [30]: 41.4%; viability, T/C (second compound 10 µM, first compound 0.316 µM): 25%; viability, T/C (second compound 10 µM, first compound 1 µM): 25.1%; viability, T/C (second compound 10 µM, first compound 3.16 µM): 24.4%
CN(C)C/C=C/C(=O)Nc1cc2c(Nc3ccc(F)c(Cl)c3)ncnc2cc1O[C@H]1CCOC1 + CC1OCC2(CCN(c3cnc(Sc4ccnc(N)c4Cl)c(N)n3)CC2)C1N | > 100 | > 100 | > 100 | > 100 | 63.1 | 105 | 106 | 92.8 | 90.2 | 84.5 | 94.5 | 84.3 | 80.2 | 83.4 | 91.8 | 79.8 | 60.4 | 59 | 81.5 | 51.6 | viability, T/C [26]: 65.2%; viability, T/C [8]: 82.8%; viability, T/C [27]: 68%; viability, T/C [11]: 95.9%; viability, T/C [12]: 84.2%; viability, T/C [13]: 88.1%; viability, T/C [28]: 75.8%; viability, T/C [16]: 67.6%; viability, T/C [17]: 64.1%; viability, T/C [18]: 62.8%; viability, T/C [29]: 51.6%; viability, T/C [21]: 85.5%; viability, T/C [22]: 97.7%; viability, T/C [23]: 66.9%; viability, T/C [30]: 46.8%
